From ChEMBL document CHEMBL1201862, “PubChem BioAssay data set” (2004)
Values joined by “and” are separate entries in the source; they are usually repeats but may differ in a detail not shown here. Equal values may be shown once.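 Results reflect a 48-hour exposure of cells in 96-well plates to compound at five concentrations. GI50: concentration for 50% inhibition of growth.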 Active and inactive are the calls of the source. No stated cut-off is given here; in the data, active = GI50 up to about 1.1 µM and inactive = higher.

Legend:
Assay in all cases: growth of human tumour cells (NCI), 48 h
T47D = test system: T47D
BT-549 = test system: BT-549
DMS-114 = test system: DMS-114
HOP-18 = test system: HOP-18
KM-20L2 = test system: KM-20L2
M19-MEL = test system: M19-MEL
SNB-78 = test system: SNB-78
XF498 = test system: XF498

Row | SMILES | GI50 (T47D) | GI50 (BT-549) | also measured
1 | C=C1C(=O)OC2CC1C(OC(C)=O)C/C(C)=C/CC/C(C)=C\CCC2(C)O (centres undefined) | 3.4 µM (inactive) and 4.56 µM (inactive) | – | –
2 | S=C1/C(=N/c2ccccc2)N(c2ccccc2)/C(=N\c2ccccn2)N1c1ccccc1 | 15 µM (inactive) | – | –
3 | CC1(C)Oc2ccccc2OC1O (centres undefined) | > 100 µM (inactive) | > 100 µM (inactive) | –
4 | Cc1ccc(S(=O)(=O)NN=C2CCCCCCCCCCC2)cc1 | > 100 µM (inactive) | > 100 µM (inactive) | –
5 | CCOC(=O)/C=C(/C(=O)OCC)n1ccc(=O)n(CC(=O)OCC)c1=O | 0.57 µM (active) | 2.08 µM (inactive) | –
6 | CCOC(=O)NC(=O)c1cn(CCCOC(=O)CCCCCCCCC(=O)OCCCn2cc(C(=O)NC(=O)OCC)c(=O)[nH]c2=O)c(=O)[nH]c1=O | – | – | GI50 (DMS-114): 6.65 µM (inactive); GI50 (HOP-18): 29.1 µM (inactive); GI50 (KM-20L2): 34.5 µM (inactive); GI50 (M19-MEL): 12.9 µM (inactive); GI50 (SNB-78): 8 µM (inactive); GI50 (XF498): 20.7 µM (inactive)
7 | O=C1CCCc2ccc3c(c21)CC1(Cc2ccccc2C1)C3 | 44.2 µM (inactive) | – | –
8 | c1cc2n(n1)CCN2 | 347 µM (inactive) | 4840 µM (inactive) | GI50 (DMS-114): 1560 µM (inactive); GI50 (HOP-18): 4030 µM (inactive); GI50 (KM-20L2): 2970 µM (inactive); GI50 (M19-MEL): 6870 µM (inactive); GI50 (SNB-78): 4740 µM (inactive); GI50 (XF498): 431 µM (inactive)
9 | Cn1c(S)nc2c(Cl)cc(Cl)cc2c1=O | – | > 100 µM (inactive) | –
10 | CN(C(=O)Cc1cc(Cl)c(Cl)cc1NC(=O)CCCN)[C@H]1CCCC[C@@H]1N1CCCC1 | 29.8 µM (inactive) | 71.9 µM (inactive) | –
11 | CCN(CC)CCO/N=C1\CC[C@H]2[C@@H]3CC=C4C[C@@H](O)CC[C@]4(C)[C@H]3CC[C@]12C | – | 16.8 µM (inactive) | –
12 | O=c1c([Se]c2coc3ccccc3c2=O)coc2ccccc12 | – | – | GI50 (DMS-114): 17.5 µM (inactive); GI50 (HOP-18): 15.7 µM (inactive); GI50 (KM-20L2): 12 µM (inactive); GI50 (M19-MEL): 15.3 µM (inactive); GI50 (SNB-78): 19.9 µM (inactive); GI50 (XF498): 16.8 µM (inactive)
13 | N=C(c1ccc2ccccc2c1)c1ccccc1Cc1ccccc1 | 17.3 µM (inactive) | 84.7 µM (inactive) | –
14 | CC(=O)Nc1ccc(-c2nnc(SCC(=O)Nc3cccc(C)c3)o2)cc1 | – | – | GI50 (DMS-114): 2.34 µM (inactive); GI50 (HOP-18): 16.1 µM (inactive); GI50 (KM-20L2): 10.2 µM (inactive); GI50 (M19-MEL): 12.2 µM (inactive); GI50 (SNB-78): 13.7 µM (inactive)
15 | OCCOCCN1CCN(c2nc(N3CCCC3)c3nc(Cl)c(NCc4ccccc4)nc3n2)CC1 | 13.2 µM (inactive) | 15.3 µM (inactive) | –
16 | CCOC(=O)/C(C(N)=O)=C(O)/C(O)=C/C(=O)c1ccc(Cl)cc1 | 18.6 µM (inactive) | 18 µM (inactive) | –
17 | CC(Br)C(=O)NC(CO)C(=O)O (centres undefined) | > 100 µM (inactive) | > 100 µM (inactive) | –
18 | O=C(NO)c1cccc(OCc2ccc(Br)cc2)c1 | 3.06 µM (inactive) | 7.71 µM (inactive) | –
19 | Cc1n[nH]c(C(F)(F)F)c1/N=N/N(C)C | 2.23 µM (inactive) | 11.7 µM (inactive) | –

Row | SMILES | GI50 (T47D) | GI50 (BT-549) | also measured
20 | CC1/C(=N/O)CC(c2ccccc2)N(N=O)C1c1ccccc1 (centres undefined) | > 100 µM (inactive) | > 100 µM (inactive) | –
21 | CC(C)(Br)C(Br)CCC1(C2CO2)CO1 (centres undefined) | > 5 µM (inactive) | > 5 µM (inactive) | –
22 | CNn1c(C)n[nH]c1=O | > 100 µM (inactive) | > 100 µM (inactive) | –
23 | N#Cc1c(N)nc2c(C#N)c(N)cc3c2c1Oc1ccccc1-3 | > 100 µM (inactive) | > 100 µM (inactive) | –
24 | COc1ccc2c(c1)CC1Cc3cc(OC)c(OC)cc3CN1CC2 (centres undefined) | 23.9 µM (inactive) | 32.6 µM (inactive) | –
25 | C=C1CC(C#N)(C#N)[C@@H]2CC3CCCC3[C@H]12.C=C1CC(C#N)(C#N)[C@H]2C3CCCC3C[C@@H]12 (some centres undefined) | 31.9 µM (inactive) | 25.9 µM (inactive) | –
26 | CN(Cc1ccccc1)c1cc(=O)n(C)c(=O)[nH]1 | > 100 µM (inactive) | > 100 µM (inactive) | –
27 | [N-]=[N+]=CC(=O)OCCCCl | – | > 100 µM (inactive) | –
28 | CCn1c(-c2ccc(C)cc2)cs/c1=N\C(P(=O)(O)O)P(=O)(O)O | – | > 100 µM (inactive) | –
29 | COc1ccc(/C=C(\C#N)c2nc(-c3cc4ccccc4oc3=O)cs2)cc1 | 52.5 µM (inactive) | 14.2 µM (inactive) | –
30 | CCC(=O)OC1CCn2c1nc1c2C(=O)C(C)=C(NC(C)=O)C1=O (centres undefined) | – | – | GI50 (DMS-114): 0.425 µM (active); GI50 (M19-MEL): 1.76 µM (inactive); GI50 (SNB-78): 1.79 µM (inactive)
31 | O=C1C=CC(=O)c2c(O)nc(CBr)nc21 | > 100 µM (inactive) | – | –
32 | Cc1cc(C)c(C(=O)/C=C/c2ccccc2)c(C)c1 | – | – | GI50 (DMS-114): 24.1 µM (inactive); GI50 (HOP-18): > 100 µM (inactive); GI50 (KM-20L2): 32.6 µM (inactive); GI50 (M19-MEL): 28.5 µM (inactive); GI50 (XF498): 12.6 µM (inactive)
33 | CNC(=S)N/N=C1\C(=O)N(CN2CCOCC2)c2ccc([N+](=O)[O-])cc21 | 18.9 µM (inactive) | – | –
34 | COc1c2nc(CCl)n(C)c(=O)c2c(OC)c2c(=O)n(C)c(CCl)nc12 | – | 0.544 µM (active) | –
35 | COC1=C(Br)[C@H](O)[C@@]2(C=C1Br)CC(C(=O)NCCCOc1c(Br)cc(C(O)CNC(C)=O)cc1Br)=NO2 (some centres undefined) [APLYSINAMISINE III] | > 10 µM (inactive) | 2.79 µM (inactive) | –
36 | CCc1nc(N)nc(N)c1-c1ccc(Cl)c(Cl)c1 [ETOPRINE] | > 100 µM (inactive) | 51.3 µM (inactive) | –
37 | O=S(=O)(F)Cc1ccccc1 [PHENYLMETHYLSULFONYLFLUORIDE] | – | > 100 µM (inactive) | –
